Results from US10961196B2, “Compounds for use as an anti-bacterial or anti-fungal agent and as a zinc sensor” (UNIVERSITÄT KONSTANZ, priority 2016, dated 2021).
Values joined by “and” are separate entries in the source; they are usually repeats but may differ in a detail not shown here. Identical values can stand only once. Like-named read-outs stand apart in the source and are kept apart here.

Legend:
S. aureus NCTC 8325 = test: Minimum inhibitory concentration (MIC), 96-well plates, serial dilutions in LB medium; assay type: cell-based; settings: Staphylococcus aureus
Excerpt: (§1) Example 12: Determination of the Minimum Inhibitory Concentration (MIC) with Non-Pathogenic E. coli and B. subtilis and/or Pathogenic Strains of S. aureus Including Three MRSA Strains (USA 300, Mu50 and DSM18827) as Well as the Pathogenic Fungus Candida albicans
(§2) Minimum inhibitory concentrations (MIC) for compounds 1 to 11 with non-pathogenic E. coli and B. subtilis and/or pathogenic strains of S. aureus including three MRSA strains (USA 300, Mu50 and DSM18827) as well as the pathogenic fungus Candida albicans were determined in 96-well plates with serial dilutions in LB medium.

B. subtilis = test: as above; assay type: cell-based; settings: Bacillus subtilis, read-out: Minimum inhibitory concentration (MIC)
Excerpt: as §1, §2

E. coli K12 = test: as above; assay type: cell-based; settings: Escherichia coli
Excerpt: as §1, §2

S. aureus USA 300 (MRSA) = test: as above; assay type: cell-based; settings: Staphylococcus aureus, read-out: Minimum inhibitory concentration (MIC)
Excerpt: as §1, §2
Example 21: Determination of the Minimum Inhibitory Concentration (MIC) for the Compounds Represented by the Formulas (14) and (16) with the Pathogenic USA 300 (MRSA) Strain of S. aureus
Minimum inhibitory concentrations (MIC) for the compounds represented by the Formulas (14) and (16) with the pathogenic MRSA strains of S. aureus USA 300 were determined in 96-well plates with serial dilutions in LB medium.

S. aureus Mu50 (MRSA) [1] = test: as above; assay type: cell-based; settings: Staphylococcus aureus, read-out: Minimum inhibitory concentration (MIC)
Excerpt: as §1, §2

Candida albicans = test: as above; assay type: cell-based; settings: read-out: Minimum inhibitory concentration (MIC)
Excerpt: as §1, §2

[2] = tested on: S. aureus DSM18827 (MRSA); test: as above; assay type: cell-based; settings: Staphylococcus aureus, DSM 11827 / DSM 18827 / MRSA, read-out: Minimum inhibitory concentration (MIC)
Excerpt: as §1, §2

[3] = tested on: human embryonic kidney cell line HEK-293; test: Toxicological testing, viability by resazurin reduction after 24 h; assay type: cell-based; settings: HEK-293, 0-100 μM tested
Experimental: Example 13: Toxicological Testing with Human Embryonic Kidney Cell Line HEK-293
Compounds 3, 5, and 10 were toxicologically tested with human embryonic kidney cell line HEK-293 at concentrations varying from 0 to 100 μM (cf. FIGS. 1 to 3). The viability was measured by resazurin reduction after 24 h.

[4] = tested on: developing neurons (LUHMES d2-3); test: Toxicological testing with developing neurons in the LUHMES d2-3 assay; assay type: cell-based; settings: 0-100 μM tested
Experimental: Example 14: Toxicological Testing with Developing Neurons in the LUHMES d2-3 Assay
Compounds 3, 5, and 10 were toxicologically tested with developing neurons in the LUHMES d2-3 assay at concentrations varying from 0 to 100 μM (cf. FIGS. 4 to 6). […] In the case of compound 5 (cf. FIG. 5), general cytotoxicity (orange line) and inhibition of neurite outgrowth each started above 40 μM (green line). For compound 10 (cf. FIG. 6), general cytotoxicity (orange line) started at 80 μM and inhibition of neurite outgrowth started at 40 μM (green line).

Neisseria gonorrhoeae = test: Growth curves in comparison to an untreated and a DMSO treated control; assay type: cell-based
Experimental: Example 24: Determination of the Inhibitory Effect of 1-S-PQS (5) and the Compound Represented by the Formula (14) Against Neisseria gonorrhoeae by Measuring Growth Curves in Comparison to an Untreated and a DMSO Treated Control
The inhibitory effect of 1-S-PQS (5) and the compound represented by the Formula (14) against Neisseria gonorrhoeae was determined by measuring growth curves in comparison to an untreated and a DMSO treated control (cf. FIGS. 17 to 19). […] The compound represented by the Formula (14) was effective against N. gonorrhoeae around 25-50 μM (cf. FIG. 19).

Neisseria meningitidis = test: as above; assay type: cell-based
Experimental: (§3) Example 22: Determination of the Inhibitory Effect of 1-S-PQS (5) Against Moraxella catarrhalis and Neisseria meningitidis by Measuring Growth Curves in Comparison to an Untreated and a DMSO Treated Control
(§4) The inhibitory effect of 1-S-PQS (5) against Moraxella catarrhalis and Neisseria meningitidis was determined by measuring growth curves in comparison to an untreated and a DMSO treated control (cf. FIGS. 11 to 14). […] M. catarrhalis is an important human pathogen responsible for otitis media in children and chronic obstructive pulmonary disease (COPD) in adults.

Moraxella catarrhalis = test: as above; assay type: cell-based
Experimental: as §3, §4
Example 23: Determination of the Inhibitory Effect of the Compound Represented by the Formula (14) Against Moraxella catarrhalis by Measuring Growth Curves in Comparison to an Untreated and a DMSO Treated Control
The inhibitory effect of the compound represented by the Formula (14) against Moraxella catarrhalis was determined by measuring growth curves in comparison to an untreated and a DMSO treated control (cf. FIGS. 15 and 16).

elastase (LasB) = elastase (LasB) (Pseudomonas aeruginosa, UniProt P14756); test: In vitro elastase assay with fluorogenic substrate Abz-peptide-Nba; assay type: biochemical, P. aeruginosa
elastase (LasB), sequence (P14756 198-498): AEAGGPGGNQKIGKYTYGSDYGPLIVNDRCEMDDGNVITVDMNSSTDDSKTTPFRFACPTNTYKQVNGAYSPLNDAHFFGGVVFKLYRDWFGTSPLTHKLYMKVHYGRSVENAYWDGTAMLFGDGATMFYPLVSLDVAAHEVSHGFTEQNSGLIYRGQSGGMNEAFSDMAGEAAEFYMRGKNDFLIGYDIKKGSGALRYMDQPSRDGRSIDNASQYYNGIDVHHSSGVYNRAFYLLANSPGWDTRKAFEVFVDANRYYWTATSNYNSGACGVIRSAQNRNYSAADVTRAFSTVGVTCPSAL
Experimental: Example 16: In Vitro Inhibition of Elastase (LasB) with Compounds 6, 7, and 12
An in-vitro elastase assay was performed according to Cathcart et al. (G. R. Cathcart, B. F. Gilmore, B. Greer, P. Harriott, B. Walker, Bioorganic & medicinal chemistry letters 2009, 19, 6230-6232). For a typical in vitro elastase assay 82 μL buffer (0.05 M TRIS HCl, 2.5 mM CaCl2, pH=7.2) and 5 μL of compound 6 solved in DMSO were added in a 96 well plate. 10 μL of 3 μg/mL elastase (solved in the same Tris/CaCl2 buffer) were added and mixed with the compound. After incubation for 10 min at room temperature, 3 μL fluorogenic substrate Abz-peptide-Nba (2-aminobenzoyl-Ala-Gly-Leu-Ala-4-nitrobenzylamide) in DMF were added and the fluorescence measured for 90 min in one minute steps (excitation at 330 nm, emission at 460 nm). The slope of the resulting graph was used to calculate the enzymatic activity.

S. aureus Mu50 (MRSA) [5] = settings: cited from earlier work; for MIC of known antibiotics: comparison values
[6] = NCTC8325, read-out: Minimum inhibitory concentration (MIC)
[7] = S. aureus USA 300 (MRSA), LB medium
[8] = 5 μM was the lowest concentration tested
[9] = S. aureus Mu50 (MRSA), LB medium
[10] = NCTC8325, S. aureus NCTC 8325, LB medium, read-out: Minimum inhibitory concentration (MIC)
[11] = S. aureus DSM18827 (also printed DSM11827), MRSA, LB medium

Structure (SMILES): CCCCCCCc1cc(=O)c2ccccc2[nH]1 [Compound 1, 2-heptyl-4-quinolone, reference compound]
- MIC (S. aureus NCTC 8325; [6]): > 1000 µM and > 243 µg/mL
- MIC (B. subtilis): > 1000 µM and > 243 µg/mL
- MIC (E. coli K12): > 1000 µM and > 243 µg/mL

Structure (SMILES): CCCCCCCc1cc(=O)c2ccccc2[te]1 [Compound 2, 2-heptyl-4H-tellurochromen-4-one]
- MIC (B. subtilis): 100 µM to 250 µM and 36 µg/mL to 89 µg/mL

Structure (SMILES): CCCCCCCc1c/c(=N/O)c2ccccc2[nH]1 [Compound 3, 2-heptylquinolin-4(1H)-one oxime]
- MIC (S. aureus USA 300 (MRSA)): 60 µM and 15.5 µg/mL
- MIC (S. aureus Mu50 (MRSA) [1]; MRSA): 60 µM and 15.5 µg/mL
- MIC (S. aureus NCTC 8325; [6]): 60 µM and 15.5 µg/mL
- MIC (B. subtilis): 50 µM and 12.9 µg/mL
- MIC (E. coli K12): 300 µM and 78 µg/mL
- MIC (Candida albicans): 100 µM and 25.8 µg/mL
- MIC [2]: 60 µM and 15.5 µg/mL
- Concentration at which cell toxicity starts [3]: 40 µM
- Concentration at which general cytotoxicity starts [4]: above 10 μM
- Concentration at which inhibition of neurite outgrowth starts [4]: above 2.5 μM

Structure (SMILES): CCCCCCCc1[nH]c2ccccc2c(=O)c1O [Compound 4, 2-heptyl-3-hydroxy-4-quinolone, reference compound]
- MIC (S. aureus NCTC 8325; [6]): > 1000 µM and > 259 µg/mL
- MIC (B. subtilis): > 1000 µM and > 259 µg/mL
- MIC (E. coli K12): > 1000 µM and > 259 µg/mL

Structure (SMILES): CCCCCCCc1sc2ccccc2c(=O)c1O [Compound 5, 2-heptyl-3-hydroxy-4H-thiochromen-4-one]
- Concentration at which growth was completely inhibited (Neisseria gonorrhoeae): 25 µM
- MIC (S. aureus USA 300 (MRSA); [7]): 30 µM and 8.29 µg/mL
- Concentration at which growth was completely inhibited (Neisseria meningitidis): 10 µM
- Growth relative to DMSO control (Neisseria meningitidis; 5 μM): 0.4
- Growth relative to DMSO control (Neisseria meningitidis; 10 μM): 0.0
- Growth relative to DMSO control (Neisseria meningitidis; 25 μM): 0.0
- Growth relative to DMSO control (Neisseria meningitidis; 50 μM): 0.0
- Growth relative to DMSO control (Moraxella catarrhalis; 5 μM): 0.1
- Concentration at which growth was completely inhibited (Moraxella catarrhalis; [8]): ≤ 5 µM
- Growth relative to DMSO control (Moraxella catarrhalis; 10 μM): 0.0
- Growth relative to DMSO control (Moraxella catarrhalis; 25 μM): 0.0
- Growth relative to DMSO control (Moraxella catarrhalis; 50 μM): 0.0
- Concentration at which growth was completely inhibited (Moraxella catarrhalis; lowest concentration tested (5 μM) expressed in μg/mL): ≤ 1.4 µg/mL
- MIC (S. aureus Mu50 (MRSA) [1]; [9]): 25 µM and 6.91 µg/mL
- MIC (S. aureus NCTC 8325; [10]): 30 µM and 8.29 µg/mL
- MIC (B. subtilis; B. subtilis, LB medium): 25 µM and 6.91 µg/mL
- MIC [2, 11]: 35 µM and 9.67 µg/mL
- Concentration at which general cytotoxicity starts [4]: above 40 μM
- Concentration at which inhibition of neurite outgrowth starts [4]: above 40 μM

Structure (SMILES): CCCCCCCc1oc2ccccc2c(=S)c1O [Compound 7, 2-heptyl-3-hydroxy-4H-chromene-4-thione]
- MIC (S. aureus USA 300 (MRSA); [7]): 60 µM and 16.6 µg/mL
- MIC (S. aureus Mu50 (MRSA) [1]; [9]): 50 µM and 13.8 µg/mL
- MIC (S. aureus NCTC 8325; [10]): 60 µM and 16.6 µg/mL
- MIC [2, 11]: 72.5 µM and 20 µg/mL
- IC50 (elastase (LasB)): 2 µM

Structure (SMILES): CCCCCCCc1[nH]c2ccccc2/c(=N\O)c1O [Compound 8, 2-heptyl-3-hydroxyquinolin-4(1H)-one oxime]
- MIC (S. aureus USA 300 (MRSA)): 100 µM and 27.4 µg/mL
- MIC (S. aureus Mu50 (MRSA) [1]; MRSA): 100 µM and 27.4 µg/mL
- MIC (S. aureus NCTC 8325; [6]): 200 µM and 54.9 µg/mL
- MIC [2]: 150 µM and 41.1 µg/mL

Structure (SMILES): Cc1sc2ccccc2c(=O)c1O [Compound 9, 3-hydroxy-2-methyl-thiochromen-4-one]
- MIC (S. aureus USA 300 (MRSA)): > 1000 µM and > 192 µg/mL
- MIC (S. aureus Mu50 (MRSA) [1]; MRSA): > 1000 µM and > 192 µg/mL
- MIC (S. aureus NCTC 8325; [6]): > 1000 µM and > 192 µg/mL
- MIC [2]: > 1000 µM and > 192 µg/mL

Structure (SMILES): CCCCc1sc2ccccc2c(=O)c1O [Compound 10, 3-hydroxy-2-butyl-thiochromen-4-one]
- MIC (S. aureus USA 300 (MRSA); [7]): 50 µM and 11.7 µg/mL
- MIC (S. aureus Mu50 (MRSA) [1]; [9]): 50 µM and 11.7 µg/mL
- MIC (S. aureus NCTC 8325; [10]): 50 µM and 11.7 µg/mL
- MIC [2, 11]: 50 µM and 11.7 µg/mL
- Concentration at which general cytotoxicity starts [4]: 80 µM
- Concentration at which inhibition of neurite outgrowth starts [4]: 40 µM

Structure (SMILES): CCCCCCCc1sc2ccc(F)cc2c(=O)c1O [Compound 11, 6-fluoro-2-heptyl-3-hydroxy-4H-thiochromen-4-one]
- MIC (S. aureus USA 300 (MRSA); [7]): 35 µM and 10.3 µg/mL
- MIC (S. aureus Mu50 (MRSA) [1]; [9]): 40 µM and 11.8 µg/mL
- MIC (S. aureus NCTC 8325; [10]): 35 µM and 10.3 µg/mL
- MIC [2, 11]: 40 µM and 11.8 µg/mL

Structure (SMILES): CCCCCCCc1sc2ccccc2c(=S)c1O [Compound 12, 2-heptyl-3-hydroxy-4H-thiochromene-4-thione]
- IC50 (elastase (LasB)): 2 µM

Structure (SMILES): O=c1c(O)c(CCc2ccccc2)sc2ccccc12 [Formula (14)]
- Concentration at which the compound was effective (Neisseria gonorrhoeae): 25 to 50 µM
- MIC (S. aureus USA 300 (MRSA); [7]): 40 µM and 11.3 µg/mL
- Concentration at which growth was completely inhibited (Moraxella catarrhalis; [8]): ≤ 5 µM

Structure (SMILES): CCCCCCCCCCc1sc2ccccc2c(=O)c1O [Formula (16)]
- MIC (S. aureus USA 300 (MRSA); [7]): > 100 µM and > 32 µg/mL

Structure (SMILES): CC1(C)S[C@@H]2[C@H](NC(=O)[C@H](N)c3ccccc3)C(=O)N2[C@H]1C(=O)O [ampicillin]
- MIC of known antibiotics (S. aureus Mu50 (MRSA) [5]): 37 µg/mL

Structure (SMILES): O=C(O)c1cn(C2CC2)c2cc(N3CCNCC3)c(F)cc2c1=O [ciprofloxacin]
- MIC of known antibiotics (S. aureus Mu50 (MRSA) [5]): 66 µg/mL

Structure (SMILES): CC[C@H]1OC(=O)[C@H](C)[C@@H](O[C@H]2C[C@@](C)(OC)[C@@H](O)[C@H](C)O2)[C@H](C)[C@@H](O[C@@H]2O[C@H](C)C[C@H](N(C)C)[C@H]2O)[C@](C)(O)C[C@@H](C)C(=O)[C@H](C)[C@@H](O)[C@]1(C)O [erythromycin]
- Concentration to inhibit growth (commercial antibiotics) (S. aureus Mu50 (MRSA) [5]; background section): > 1 mM
